The values that follow come from patent publication EP4722195A1, “PH-SENSITIVE CATIONIC LIPID AND LIPID NANOPARTICLES” (National University Corporation Hokkaido University, priority 2023, dated 2024).

Data set [1] is described as follows: Average particle size and polydispersity index of lipid nanoparticles (dynamic light scattering). Format: physicochemical. How it is done:
(§1) The average particle size (number average value), ζ-average particle size, and polydispersity index (PdI) of the lipid nanoparticles in PBS(-) (pH 7.4), and the zeta potential in 10 mM HEPES buffer (pH 7.4) were measured using an analyzer "Zetasizer Nano ZS ZEN3600" (manufactured by Malvern) utilizing dynamic light scattering.

Data set [2] is described as follows: Zeta potential of lipid nanoparticles. Format: physicochemical. How it is done:
as §1

Data set [3] can be described thus: Encapsulation rate of lipid nanoparticles (Ribogreen). Format: physicochemical. How it is done:
The encapsulation rate of the lipid nanoparticles was determined by measuring the amount of encapsulated nucleic acid (mRNA) using Ribogreen (manufactured by Life Technologies), which is an RNA intercalator. The mRNA amount was quantified based on a calibration curve prepared from a series of diluted mRNA solutions at known concentrations.
Specifically, 10 mM HEPES buffer (pH 7.4), 10 w/v% Triton X-100, and Ribogreen were mixed at 978.8 µL, 20 µL, and 1.25 µL per 10 wells, respectively, to obtain a Triton(+) buffer. A Triton(-) buffer was obtained in replacing Triton X-100 with 10 mM HEPES buffer (pH 7.4). 100 µL/well of the sample was added to a black 96-well plate for fluorescence measurement, and 100 µL/well of Triton(+) buffer or Triton(-) buffer was added. After the plate was gently shaken on a shaking incubator (SI-300, manufactured by AS ONE) (700 rpm, 30 seconds), the fluorescence intensity of each well was measured using a microplate reader (VARIOSKAN LUX, manufactured by Thermo Fisher Scientific) (wavelength Ex/Em=500 nm/525 nm), and the nucleic acid encapsulation rate (%) was calculated.

The test system of data set [4] is liver. Briefly: EGFP expression in liver tissue sections of mice administered EGFP mRNA-loaded lipid nanoparticles (confocal microscopy). Format: in vivo, Balb/c mice. Particulars: Example 27, Fig. 6; EGFP mRNA-loaded lipid nanoparticles TxT/DSPC/chol/PEG-DMG=50/3/47/1.5 (mol%); 24 hours post-administration. How it is done:
Subsequently, each EGFP mRNA-loaded lipid nanoparticle was administered to Balb/c mice at a dose of 0.2 mg mRNA/kg. At 23 hours and 50 minutes post-administration, fluorescently labeled lectin (DyLight-649 Lycopersicon (Tomato) Lectin) was intravenously injected via the tail vein at 40 µg/mouse to fluorescently label vascular endothelial cells. At 24 hours after administration of the lipid nanoparticles, the mice were euthanized, and their livers were collected to prepare tissue sections. For nuclear staining, the tissue sections were immersed in a nuclear staining solution (1 µg/mL Hoechst 33342 dissolved in PBS(-)), cooled on ice, and incubated for at least 30 minutes in the dark. The stained tissue sections were then observed using a confocal laser scanning microscope. Subsequently, in the same manner as Example 26, each EGFP mRNA-loaded lipid nanoparticle was administered to Balb/c mice. At 23 hours and 50 minutes post-administration, fluorescently labeled lectin was administered. At 24 hours after administration of the lipid nanoparticles, the mice were euthanized, and their livers were collected to prepare tissue sections. Each tissue section was observed using a confocal laser scanning microscope. In the figure, the upper panels show fluorescence images of EGFP, and the lower panels show fluorescence images of vascular endothelial cells (fluorescently labeled lectin).

For data set [5] the following is noted: lipid nanoparticles, tns.
In data set [6] the test system is liver. Briefly: Fluc activity in the liver of mice administered Fluc mRNA-loaded lipid nanoparticles. Format: in vivo, BALB/c mice. Particulars: Example 31, Fig. 10; Fluc mRNA-loaded lipid nanoparticles containing 3 mol% DSPC; N = 3. How it is done:
(§2) Lipid nanoparticles were administered to mice by intravenous injection into the tail vein using a 27G needle. Unless otherwise specified, BALB/c mice (4 to 5 weeks old, female) were used.
(§3) First, BALB/c mice (female, 4 weeks old) were intravenously injected with lipid nanoparticles encapsulating Fluc mRNA (Fluc mRNA-loaded lipid nanoparticles) at a dose of 0.1 mg mRNA/kg. Six hours after intravenous injection, the mice were euthanized, each tissue was collected, frozen in liquid nitrogen, and stored at -80°C. The tissues were homogenized in passive lysis buffer (manufactured by Promega) using a bead-type cell disruptor (Micro Smash MS-100R, manufactured by TOMY Seiko). Tissue debris was removed by centrifugation, and the supernatant was collected. Fluc activity in the supernatant was measured using the Luciferase Assay System (E1500, manufactured by Promega) according to the manufacturer's protocol. Luminescence was measured using a luminometer (Luminescencer-PSN, manufactured by ATTO). Protein concentration was determined using a commercially available assay kit (BCA Protein Assay Kit, manufactured by Pierce). Fluc activity was expressed as relative light units (RLU) per mg of protein.
Subsequently, lipid nanoparticles encapsulating Fluc mRNA prepared using TxT-5-5A10, TxT-5-5A12, TxT-5-5A12β, TxT-5-5A14, and TxT-5-5A16 were administered to mice to evaluate luciferase expression levels (Fluc activity) in various tissues. Specifically, each Fluc mRNA-loaded lipid nanoparticle was administered to Balb/c mice at a dose of 0.1 mg mRNA/kg. Six hours after administration, the mice were euthanized, and their organs were collected to measure Fluc activity (RLU/mg protein) (N = 2 or 4).

The next data set has as its system various tissues. The data set can be described thus: Fluc activity in various tissues of mice administered Fluc mRNA-loaded lipid nanoparticles. Format: in vivo, BALB/c mice. The conditions noted are these: Example 31, Fig. 10; Fluc mRNA-loaded lipid nanoparticles containing 3 mol% DSPC; N = 3. How it is done:
as §2
as §3, with “protein. […]” for “protein.”

In a further data set the test system is spleen. Briefly: Fluc activity in the spleen of mice administered Fluc mRNA-loaded lipid nanoparticles. Format: in vivo, BALB/c mice. Particulars: Example 22, Fig. 1; TxT/DSPC/chol/PEG-DMG=50/15/35/1.5 (mol%); 0.1 mg mRNA/kg intravenous; six hours after administration; comparison among TxT lipids. How it is done: as §2
as §3, with “protein. […]” for “protein.”

A short description of data set [7]: Apparent pKa of lipid nanoparticles (TNS).
The test system of another data set is factor VII (F7). Particulars: mouse liver; siRNA; cited from earlier work.
Setting [8] is: Table 3, Fluc mRNA-loaded lipid nanoparticles, TxT/DSPC/chol/PEG-DMG=50/3/47/1.5 (mol%).
The mark [9] stands for this setting: Table 5, EGFP mRNA-loaded lipid nanoparticles, TxT/DSPC/chol/PEG-DMG=50/3/47/1.5 (mol%), total flow rate 3.0 mL/min.
Where [10] appears, read: Table 8 (Example 32), lipid nanoparticles for TTR-targeted genome editing, Cas9-mRNA and TTR-gRNA 1:2 (N/P = 6.0), TxT/DSPC/chol/PEG-DMG = 50/3/47/1.5 (mol%).
The mark [11] stands for this setting: Table 1, Fluc mRNA-loaded lipid nanoparticles, TxT/DSPC/chol/PEG-DMG=50/15/35/1.5 (mol%).

Where two headings read alike, the source gives them in different places.

By pKa is commonly meant the pH at which an ionisable group is half protonated. Take “2-(6-(didecylamino)-2,6-dioxohexyl)-2-(3-(piperidin-1-yl)propanamido)propane-1,3-diyl bis(5-(didecylamino)-5-oxopentanoate) [TxT-5-5A20]”: the Pdl in data set [1] (setting [8]) was determined as 0.11; in [1] (setting [9]) it was 0.08. Further, the “number average particle size” value in [1] (setting [8]) worked out at 95.1 nm; in data set [1] (setting [9]), 108.4 nm. Further, the ζ-average particle size in data set [1] (setting [8]) and in data set [1] (setting [9]) was 136.2 nm each time. In addition, the values for the ζ-potential in data set [2] (setting [8]) and in data set [2] (setting [9]) were -4.4 mV and -8.7 mV, respectively. The mRNA concentration was 0.018 µg/µL in data set [3] (setting [8]) and 0.022 µg/µL in data set [3] (setting [9]). Further, the mRNA encapsulation rate turned out to be 98.2% in data set [3] (setting [8]) and 97.8% in data set [3] (setting [9]). For the same compound, the “fluorescence of EGFP in the liver tissues” value (shortened to “fluorescence of EGFP”) in the data set with liver [4] is “fluorescence of EGFP was observed”. Further, in data set [5], the pKa was 6.53.
Take “2-(6-(didodecylamino)-2,6-dioxohexyl)-2-(3-(piperidin-1-yl)propanamido)propane-1,3-diyl bis(5-(didodecylamino)-5-oxopentanoate) [TxT-5-5A24]”: the “average particle diameter, comparison among TxT lipids” value in data set [1] (Example 32, Table 8, lipid nanoparticles for TTR-targeted genome editing) was “smallest average particle diameter”. For the same compound, the Pdl in data set [1] (setting [8]) was 0.14; in data set [1] (setting [9]), 0.10; in data set [1] (setting [10]) it was 0.12. The “number average particle size” value in data set [1] (setting [8]) worked out at 92.2 nm; in data set [1] (setting [9]), 85.3 nm; in [1] (setting [10]), 53.1 nm. The ζ-average particle size in [1] (setting [8]) came to 133.1 nm; in data set [1] (setting [9]), 129.5 nm; in data set [1] (setting [10]), 73.8 nm. In addition, the values for the ζ-potential in data set [2] (setting [8]), in data set [2] (setting [9]) and in [2] (setting [10]) were -8.9 mV, -4.2 mV and -6.5 mV, respectively. The figures for the mRNA concentration in data set [3] (setting [8]), in data set [3] (setting [9]) and in data set [3] (setting [10]) were 0.022 µg/µL, 0.021 µg/µL and 0.541 µg/µL, respectively. Besides, the values for the mRNA encapsulation rate in data set [3] (setting [8]), in [3] (setting [9]) and in data set [3] (setting [10]) were 96.5%, 97.3% and 98.4%, respectively. The “fluorescence of EGFP” value in the data set with liver [4] is reported as “fluorescence of EGFP was observed”. In addition, the “gene expression in hepatocytes” value in the data set with liver [4] was “notably high levels of gene expression”. The compound further registered a pKa in data set [5] of 6.68.
“2-((2-(2-((diheptylamino)methyl)cyclohexyl)acetoxy)methyl)-2-(3-(piperidin-1-yl)propanamido)propane-1,3-diyl bis(2-(diheptylcarbamoyl)cyclohexane-1-carboxylate) [TxT-5-4(6)A14]”: in the data set on liver [6], the “Fluc activity in the liver relative to spleen and lung” value was “particularly high activity confirmed in the liver”. In addition, the “Fluc activity in the liver, spleen, and lung” value in the data set on various tissues was “Fluc activity was observed in the organs, i.e., liver, spleen, and lungs”.
In the case of `CCCCCCN(CCCCCC)C(=O)CCCC(=O)OCC(COC(=O)CCCC(=O)N(CCCCCC)CCCCCC)(COC(=O)CCCC(=O)N(CCCCCC)CCCCCC)NC(=O)CCN1CCCCC1` [TxT-5-5A12, 2-(((5-(dihexylamino)-5-oxopentanoyl)oxy)methyl)-2-(3-(piperidin-1-yl)propanamido)propane-1,3-diyl bis(5-(dihexylamino)-5-oxopentanoate)], the Pdl in data set [1] (setting [11]) turned out to be 0.08; in [1] (setting [8]) it was 0.10; in data set [1] (setting [9]), 0.13. For the same compound, the “number average particle size” value in [1] (setting [11]) is given as 124.5 nm; in data set [1] (setting [8]), 124.5 nm; in data set [1] (setting [9]) it was 80.2 nm. The ζ-average particle size in data set [1] (setting [11]) was found to be 155.2 nm; in data set [1] (setting [8]), 155.2 nm; in data set [1] (setting [9]), 114.4 nm. The ζ-potential is -6.7 mV in data set [2] (setting [11]), -6.7 mV in data set [2] (setting [8]) and -9.4 mV in data set [2] (setting [9]). For the same compound, the mRNA concentration in [3] (setting [11]), in data set [3] (setting [8]) and in data set [3] (setting [9]) was 0.019 µg/µL each time. The mRNA encapsulation rate is reported as 85.9% in data set [3] (setting [11]), 85.9% in data set [3] (setting [8]) and 95.5% in data set [3] (setting [9]). For the same compound, in the data set on spleen, the “Fluc activity in the spleen” value is listed as “highest Fluc activity in the spleen”. Besides, in the data set with liver [4], the “fluorescence of EGFP” value is listed as “fluorescence of EGFP was observed”. In addition, the pKa was determined as 6.44 in [7] (Table 1, apparent pKa of Fluc mRNA-loaded lipid nanoparticles, TxT/DSPC/chol/PEG-DMG=50/15/35/1.5 (mol%)) and 6.58 in [7] (setting [8]).
`CCCCC(CC)CN(CC(CC)CCCC)C(=O)CCCC(=O)OCC(COC(=O)CCCC(=O)N(CC(CC)CCCC)CC(CC)CCCC)(COC(=O)CCCC(=O)N(CC(CC)CCCC)CC(CC)CCCC)NC(=O)CCN1CCCCC1` (stereo not drawn) [TxT-5-5A16b]: in data set [1] (setting [8]), the Pdl was 0.22, the “number average particle size” value is recorded as 61.6 nm and the ζ-average particle size is reported as 103.7 nm. Besides, in data set [1] (setting [9]), the Pdl is 0.07, the “number average particle size” value is 59.1 nm and the ζ-average particle size was found to be 81.4 nm. For the same compound, the ζ-potential in data set [2] (setting [8]) is listed as -11.2 mV. Besides, the ζ-potential in data set [2] (setting [9]) is reported as -6.0 mV. For the same compound, in [3] (setting [8]), the mRNA concentration was found to be 0.019 µg/µL and the mRNA encapsulation rate was found to be 96.0%. Moreover, in [3] (setting [9]), the mRNA concentration came to 0.020 µg/µL and the mRNA encapsulation rate is given as 97.9%. Also, the “fluorescence of EGFP” value in the data set on liver [4] is given as “fluorescence of EGFP was observed”. This compound also gave a pKa in data set [5] of 4.99.
For `CCCCC/C=C\C/C=C\CCCCCCCCOC1(OCCCCCCCC/C=C\C/C=C\CCCCC)CCN(C)CC1` [YSK05], the “ED50 in factor VII (F7) knockdown” value with factor VII (F7) is on record as 0.06 mg siRNA/kg.
